In brackets after ≈: the same amount, converted by molar mass.
Legend:
[1] = system: S. aureus vancomycin-intermediates (VISA) Met-R strains; test: MIC determination (NCCLS broth microdilution), VISA Met-R strains; type: cell-based, Staphylococcus aureus
Description: (§1) The MICs of thiamphenicol and of other antibiotics was obtained by using the method proposed by NCCLS (National Committee for Clinical Laboratory Standards, 1999).
(§2) Various antibiotic concentrations were added to bacteria in exponental growth (final inoculum 5×10^5 […]); dilution in Mb (cation-supplemented Mueller-Hinton broth) and distribution on a microplate by using an automatic diluting machine Biomek 1000 (Beckman, USA). MHb charged with 2% NaCl was used to test the methicillin activity.
(§3) The antibiotic concentration which hinders a visible growth after 18-24 hours of incubation at 37° C., was registered as MIC.
(§4) S. aureus ATCC 29213 was used as quality control strain.

[2] = system: S. aureus Met-R multiresistant strains; test: MIC determination (NCCLS broth microdilution), methicillin-resistant multiresistant S. aureus strains; type: cell-based, Staphylococcus aureus; conditions: for MIC: antibiotype Oxa, Ery
Description: as §1, §2, §3, §4

## CN[C@H](CC(C)C)C(=O)N[C@H]1C(=O)N[C@@H](CC(N)=O)C(=O)N[C@H]2C(=O)N[C@H]3C(=O)N[C@H](C(=O)N[C@H](C(=O)O)c4cc(O)cc(O)c4-c4cc3ccc4O)[C@H](O)c3ccc(c(Cl)c3)Oc3cc2cc(c3O[C@@H]2O[C@H](CO)[C@@H](O)[C@H](O)[C@H]2O[C@H]2C[C@](C)(N)[C@H](O)[C@H](C)O2)Oc2ccc(cc2Cl)[C@H]1O [Vancomicine, vancomycine]
[1]; Staphylococcus aureus, VISA
  MIC: 8 µg/mL (≈ 5.52 µM)
[1]; Strain 52 VISA, antibiotype Oxa, Cip, Clin, Ery
  MIC: 8 µg/mL (≈ 5.52 µM)
[1]; VISA (2) Met-R
  MIC Range: 8 µg/mL (≈ 5.52 µM)
[2]; S. aureus (50) Met-R
  MIC Range: 0,5-2 mg/l
[2]; S. aureus (50) Met-R, NCCLS (1999) breakpoints
  % susceptible at breakpoint: 100%
[2]; Staphylococcus aureus
  MIC50: 1 µg/mL (≈ 0.69 µM)
  MIC90: 1 µg/mL (≈ 0.69 µM)
[2]; Staphylococcus aureus, Strain 1, Cip, Clin, Gm
  MIC: 0.5 µg/mL (≈ 0.345 µM)
[2]; Staphylococcus aureus, Strain 2, Clin, Fos
  MIC: 1 µg/mL (≈ 0.69 µM)
[2]; Staphylococcus aureus, Strain 3, Cip, Clin, Gm
  MIC: 1 µg/mL (≈ 0.69 µM)
[2]; Staphylococcus aureus, Strain 4, Cip, Gm
  MIC: 1 µg/mL (≈ 0.69 µM)
[2]; Staphylococcus aureus, Strain 5, Cip, Clin
  MIC: 1 µg/mL (≈ 0.69 µM)
[2]; Staphylococcus aureus, Strain 6, Clin, Gm
  MIC: 1 µg/mL (≈ 0.69 µM)
[2]; Staphylococcus aureus, Strain 7, Cip, Gm
  MIC: 0.5 µg/mL (≈ 0.345 µM)
[2]; Staphylococcus aureus, Strain 8, Cip, Clin
  MIC: 1 µg/mL (≈ 0.69 µM)
[2]; Staphylococcus aureus, Strain 9, Cip, Clin, Gm
  MIC: 1 µg/mL (≈ 0.69 µM)
[2]; Staphylococcus aureus, Strain 10, Cip, Clin, Gm
  MIC: 1 µg/mL (≈ 0.69 µM)
[2]; Staphylococcus aureus, Strain 11, Clin, Rif
  MIC: 1 µg/mL (≈ 0.69 µM)
[2]; Staphylococcus aureus, Strain 12, Cip, Clin
  MIC: 1 µg/mL (≈ 0.69 µM)
[2]; Staphylococcus aureus, Strain 13, Cip, Clin
  MIC: 1 µg/mL (≈ 0.69 µM)
[2]; Staphylococcus aureus, Strain 14, Clin, Cip
  MIC: 1 µg/mL (≈ 0.69 µM)
[2]; Staphylococcus aureus, Strain 15, Cip, Clin, Gm
  MIC: 0.5 µg/mL (≈ 0.345 µM)
[2]; Staphylococcus aureus, Strain 16, Cip, Clin
  MIC: 1 µg/mL (≈ 0.69 µM)
[2]; Staphylococcus aureus, Strain 17, Cip, Clin
  MIC: 0.5 µg/mL (≈ 0.345 µM)
[2]; Staphylococcus aureus, Strain 18, Cip, Clin, Gm
  MIC: 1 µg/mL (≈ 0.69 µM)
[2]; Staphylococcus aureus, Strain 19, Cip, Clin, Gm
  MIC: 1 µg/mL (≈ 0.69 µM)
[2]; Staphylococcus aureus, Strain 20, Cip, Clin, Gm
  MIC: 1 µg/mL (≈ 0.69 µM)
[2]; Staphylococcus aureus, Strain 21, Cip, Clin, Gm
  MIC: 1 µg/mL (≈ 0.69 µM)
[2]; Staphylococcus aureus, Strain 22, Cip, Clin
  MIC: 0.5 µg/mL (≈ 0.345 µM)
[2]; Staphylococcus aureus, Strain 23, Cip, Clin, Gm
  MIC: 1 µg/mL (≈ 0.69 µM)
[2]; Staphylococcus aureus, Strain 24, Cip, Clin, Gm
  MIC: 1 µg/mL (≈ 0.69 µM)
[2]; Staphylococcus aureus, Strain 25, Cip, Clin, Gm
  MIC: 1 µg/mL (≈ 0.69 µM)
[2]; Staphylococcus aureus, Strain 26, Cip, Clin, Fos, Gm
  MIC: 1 µg/mL (≈ 0.69 µM)
[2]; Staphylococcus aureus, Strain 27, Cip, Clin, Fos, Gm
  MIC: 1 µg/mL (≈ 0.69 µM)
[2]; Staphylococcus aureus, Strain 28, Cip, Clin, Gm
  MIC: 1 µg/mL (≈ 0.69 µM)
[2]; Staphylococcus aureus, Strain 29, Clin, Fos
  MIC: 1 µg/mL (≈ 0.69 µM)
[2]; Staphylococcus aureus, Strain 30, Cip, Clin, Gm, SXT, Dox
  MIC: 0.5 µg/mL (≈ 0.345 µM)
[2]; Staphylococcus aureus, Strain 31, Cip, Clin, Fox, Gm
  MIC: 1 µg/mL (≈ 0.69 µM)
[2]; Staphylococcus aureus, Strain 32, Cip, Clin, Gm, SXT, Rif
  MIC: 1 µg/mL (≈ 0.69 µM)
[2]; Staphylococcus aureus, Strain 33, Cip, Clin, Gm
  MIC: 0.5 µg/mL (≈ 0.345 µM)
[2]; Staphylococcus aureus, Strain 34, Cip, Clin, Gm
  MIC: 0.5 µg/mL (≈ 0.345 µM)
[2]; Staphylococcus aureus, Strain 35, Cip, Clin, Gm
  MIC: 1 µg/mL (≈ 0.69 µM)
[2]; Staphylococcus aureus, Strain 36, Cip, Clin, Fos
  MIC: 0.5 µg/mL (≈ 0.345 µM)
[2]; Staphylococcus aureus, Strain 37, Cip, Clin, Fos, Gm
  MIC: 0.5 µg/mL (≈ 0.345 µM)
[2]; Staphylococcus aureus, Strain 38, Cip, Gm
  MIC: 0.5 µg/mL (≈ 0.345 µM)
[2]; Staphylococcus aureus, Strain 39, Cip, Clin, Fos, Gm
  MIC: 0.5 µg/mL (≈ 0.345 µM)
[2]; Staphylococcus aureus, Strain 40, Cip, Clin, Gm
  MIC: 0.5 µg/mL (≈ 0.345 µM)
[2]; Staphylococcus aureus, Strain 41, Cip, Clin
  MIC: 0.5 µg/mL (≈ 0.345 µM)
[2]; Staphylococcus aureus, Strain 42, Cip, Clin, Gm
  MIC: 0.5 µg/mL (≈ 0.345 µM)
[2]; Staphylococcus aureus, Strain 43, Cip, Clin, Gm
  MIC: 0.5 µg/mL (≈ 0.345 µM)
[2]; Staphylococcus aureus, Strain 44, Cip, Clin, Gm, Rif, Dox
  MIC: 1 µg/mL (≈ 0.69 µM)
[2]; Staphylococcus aureus, Strain 45, Cip, Clin, Gm, Rif, Dox, Fos
  MIC: 1 µg/mL (≈ 0.69 µM)
[2]; Staphylococcus aureus, Strain 46, Clin, Fos
  MIC: 0.5 µg/mL (≈ 0.345 µM)
[2]; Staphylococcus aureus, Strain 47, Cip, Clin, Gm
  MIC: 0.5 µg/mL (≈ 0.345 µM)
[2]; Staphylococcus aureus, Strain 48, Cip, Clin
  MIC: 2 µg/mL (≈ 1.38 µM)
[2]; Staphylococcus aureus, Strain 49, Cip, Gm
  MIC: 1 µg/mL (≈ 0.69 µM)
[2]; Staphylococcus aureus, Strain 50, Cip, Clin, Gm, Rif, Dox
  MIC: 1 µg/mL (≈ 0.69 µM)
